Data taken from patent US11214594B2, “Antimicrobial peptide having synergistic antibacterial effect with antibiotics on multidrug resistant bacteria, and use thereof” (priority 2016, dated 2022).
Where two headings read alike, the source gives them in different places. Where a SMILES comes first, the peptide text is derived from it. [ ]: non-standard residue; d: D form.

Experiments:
A. baumannii [1] = assay: MIC of antibiotic during combined treatment with antimicrobial peptide; type: cell-based, Acinetobacter baumannii; settings: A. baumannii
How it was run: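 Using MH broth, we determined combination MICs by titrating the antibiotic into wells and then repeating under the reverse dilution scheme.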

E. coli = type: cell-based, Escherichia coli; settings: E. coli
How it was run: (§1)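 Broth microdilution in MH medium; strains were diluted to 2×10^6 CFU per ml before plating. Peptide was serially diluted stepwise at 2:1 starting from its MIC, and MH-diluted antibiotic was then added to determine MIC. The reversed arrangement was also tested.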

MDREC 1229 = type: cell-based, Escherichia coli
How it was run: as §1

A. baumannii [2] = assay: MIC of antimicrobial peptide during combined treatment with antibiotic; type: cell-based, Acinetobacter baumannii
How it was run: as §1

MDRAB 12035 = assay: as above; type: cell-based, Acinetobacter baumannii
How it was run: as §1

[3] = combined with peptide at 2 μg/ml
[4] = combined with peptide at 4 μg/ml
[5] = combined with peptide at 6 μg/ml
[6] = combined with peptide at 8 μg/ml
[7] = combined with peptide at 16 μg/ml
[8] = combined with peptide at 32 μg/ml
[9] = combined with peptide at 64 μg/ml
[10] = linezolid 64 μg/ml (Conc./MIC 1/8)
[11] = linezolid 512 μg/ml (Conc./MIC 1)
[12] = vancomycin 512 μg/ml (Conc./MIC 1/2)
[13] = vancomycin 1024 μg/ml (Conc./MIC 1)
[14] = erythromycin 4 μg/ml (Conc./MIC 1/8)
[15] = erythromycin 8 μg/ml (Conc./MIC 1/4)
[16] = erythromycin 16 μg/ml (Conc./MIC 1/2)
[17] = erythromycin 32 μg/ml (Conc./MIC 1)

Compound: CC[C@H](C)[C@H](NC(=O)[C@H](CCCCN)NC(=O)[C@H](Cc1c[nH]c2ccccc12)NC(=O)[C@@H](N)CCCNC(=N)N)C(=O)N[C@@H](Cc1ccccc1)C(=O)N[C@@H](CCCCN)C(=O)N[C@@H](CCCCN)C(=O)N[C@H](C(=O)N[C@H](CCCCN)C(=O)N[C@@H](CCCCN)C(=O)N[C@@H](CC(C)C)C(=O)N[C@@H](CC(C)C)C(=O)N[C@@H](Cc1c[nH]cn1)C(=O)N[C@@H](CCCCN)C(=O)N[C@@H](Cc1ccccc1)C(=O)N[C@@H](CCCCN)C(=O)N[C@@H](CCCCN)C(=O)N[C@@H](Cc1ccccc1)C(N)=O)[C@@H](C)CC [PapMA-17, RWK IFK KIk KLL HKF KKF-NH2] (H-RWKIFKKI[dK]KLLHKFKKF-NH2; N-terminus assumed)
- Antibiotic MIC, Erythromycin (A. baumannii [1]; [3]): 16 µg/mL
- Antibiotic MIC, Linezolid (A. baumannii [1]; [3]): 64 µg/mL
- Antibiotic MIC, Vancomycin (A. baumannii [1]; [3]): >128 µg/mL
- Antibiotic MIC, Erythromycin (A. baumannii [1]; [4]): 8 µg/mL
- Antibiotic MIC, Linezolid (A. baumannii [1]; [4]): 32 µg/mL
- Antibiotic MIC, Vancomycin (A. baumannii [1]; [4]): 64 µg/mL
- Antibiotic MIC, Erythromycin (A. baumannii [1]; [5]): 2 µg/mL
- Antibiotic MIC, Linezolid (A. baumannii [1]; [5]): 32 µg/mL
- Antibiotic MIC, Vancomycin (A. baumannii [1]; [5]): 32 µg/mL
- Antibiotic MIC, Erythromycin (A. baumannii [1]; [6]): 0.25 µg/mL
- Antibiotic MIC, Linezolid (A. baumannii [1]; [6]): 8 µg/mL
- Antibiotic MIC, Vancomycin (A. baumannii [1]; [6]): 16 µg/mL
- Antibiotic MIC, Erythromycin (A. baumannii [1]; [7]): 0.125 µg/mL
- Antibiotic MIC, Linezolid (A. baumannii [1]; [7]): 2 µg/mL
- Antibiotic MIC, Vancomycin (A. baumannii [1]; [7]): 4 µg/mL
- Antibiotic MIC, Erythromycin (A. baumannii [1]; [8]): 0 µg/mL
- Antibiotic MIC, Linezolid (A. baumannii [1]; [8]): 0 µg/mL
- Antibiotic MIC, Vancomycin (A. baumannii [1]; [8]): 0 µg/mL
- Antibiotic MIC, Erythromycin (A. baumannii [1]; [9]): 0 µg/mL
- Antibiotic MIC, Linezolid (A. baumannii [1]; [9]): 0 µg/mL
- Antibiotic MIC, Vancomycin (A. baumannii [1]; [9]): 0 µg/mL
- Peptide MIC (E. coli; with Erythromycin […] (Conc./MIC 1)): 0 µg/mL
- Peptide MIC (E. coli; with Linezolid […] (Conc./MIC 1)): 0 µg/mL
- Peptide MIC (E. coli; with Vancomycin 1024 μg/ml (Conc./MIC 1)): 0 µg/mL
- Peptide MIC during treatment with antibiotic (MDREC 1229; erythromycin 32 μg/ml (Conc./MIC 1/8)): 2 µg/mL
- Peptide MIC during treatment with antibiotic (MDREC 1229; erythromycin 64 μg/ml (Conc./MIC 1/4)): 2 µg/mL
- Peptide MIC during treatment with antibiotic (MDREC 1229; erythromycin […] (Conc./MIC 1)): 0 µg/mL
- Peptide MIC during treatment with antibiotic (MDREC 1229; erythromycin […] (Conc./MIC 1/2)): 2 µg/mL
- Peptide MIC during treatment with antibiotic (MDREC 1229; [10]): 4 µg/mL
- Peptide MIC during treatment with antibiotic (MDREC 1229; [11]): 0 µg/mL
- Peptide MIC during treatment with antibiotic (MDREC 1229; linezolid […] (Conc./MIC 1/2)): 1 µg/mL
- Peptide MIC during treatment with antibiotic (MDREC 1229; linezolid […] (Conc./MIC 1/4)): 4 µg/mL
- Peptide MIC during treatment with antibiotic (MDREC 1229; [12]): 2 µg/mL
- Peptide MIC during treatment with antibiotic (MDREC 1229; [13]): 1 µg/mL
- Peptide MIC during treatment with antibiotic (MDREC 1229; vancomycin […] (Conc./MIC 1/4)): 4 µg/mL
- Peptide MIC during treatment with antibiotic (MDREC 1229; vancomycin […] (Conc./MIC 1/8)): 8 µg/mL
- Peptide MIC during treatment with antibiotic (A. baumannii [2]; [14]): 4 µg/mL
- Peptide MIC during treatment with antibiotic (A. baumannii [2]; [15]): 4 µg/mL
- Peptide MIC during treatment with antibiotic (A. baumannii [2]; [16]): 2 µg/mL
- Peptide MIC during treatment with antibiotic (A. baumannii [2]; [17]): 0 µg/mL
- Peptide MIC during treatment with antibiotic (A. baumannii [2]; linezolid 32 μg/ml (Conc./MIC 1/8)): 4 µg/mL
- Peptide MIC during treatment with antibiotic (A. baumannii [2]; linezolid 64 μg/ml (Conc./MIC 1/4)): 2 µg/mL
- Peptide MIC during treatment with antibiotic (A. baumannii [2]; linezolid […] (Conc./MIC 1)): 0 µg/mL
- Peptide MIC during treatment with antibiotic (A. baumannii [2]; linezolid […] (Conc./MIC 1/2)): 2 µg/mL
- Peptide MIC during treatment with antibiotic (A. baumannii [2]; [12]): 0.25 µg/mL
- Peptide MIC during treatment with antibiotic (A. baumannii [2]; [13]): 0 µg/mL
- Peptide MIC during treatment with antibiotic (A. baumannii [2]; vancomycin […] (Conc./MIC 1/4)): 0.5 µg/mL
- Peptide MIC during treatment with antibiotic (A. baumannii [2]; vancomycin […] (Conc./MIC 1/8)): 4 µg/mL
- Peptide MIC during treatment with erythromycin (MDRAB 12035; [14]): 4 µg/mL
- Peptide MIC during treatment with erythromycin (MDRAB 12035; [15]): 4 µg/mL
- Peptide MIC during treatment with erythromycin (MDRAB 12035; [16]): 2 µg/mL
- Peptide MIC during treatment with erythromycin (MDRAB 12035; [17]): 0 µg/mL
- Peptide MIC during treatment with linezolid (MDRAB 12035; [10]): 4 µg/mL
- Peptide MIC during treatment with linezolid (MDRAB 12035; [11]): 0 µg/mL
- Peptide MIC during treatment with linezolid (MDRAB 12035; linezolid […] (Conc./MIC 1/2)): 1 µg/mL
- Peptide MIC during treatment with linezolid (MDRAB 12035; linezolid […] (Conc./MIC 1/4)): 2 µg/mL
- Peptide MIC during treatment with vancomycin (MDRAB 12035; [12]): 2 µg/mL
- Peptide MIC during treatment with vancomycin (MDRAB 12035; [13]): 1 µg/mL
- Peptide MIC during treatment with vancomycin (MDRAB 12035; vancomycin […] (Conc./MIC 1/4)): 4 µg/mL
- Peptide MIC during treatment with vancomycin (MDRAB 12035; vancomycin […] (Conc./MIC 1/8)): 4 µg/mL
